Values quoted from earlier work, collected in patent US20090270335A1, “COLLYRIUM FOR DRY EYE” (AQUEOUS PHARMA LIMITED, priority 2006, published 2009).

Test system: tear secretion
Conditions: topical application
[1] = both in dry eye patients and people not suffering from dry eye

Structure (SMILES): CC[C@H](C)[C@H](NC(=O)[C@H](Cc1ccccc1)NC(=O)[C@H](C)NC(=O)[C@H](CC(=O)O)NC(=O)[C@H](CCCCN)NC(=O)[C@H](CO)NC(=O)[C@@H]1CCCN1C(=O)[C@@H]1CCC(=O)N1)C(=O)NCC(=O)N[C@@H](CC(C)C)C(=O)N[C@@H](CCSC)C(N)=O [eledoisin, Glu-Pro-Ser-Lys-Asp-Ala-Phe-Ile-Gly-Leu-Met-NH2]
- tear secretion rate [1]: increase
- tear volume [1]: increase
- side effect: chemosis (patients): not pronounced
- side effect: hyperemia of the conjunctiva (patients): observed initially in some patients
